Read-outs that look alike come from different tables or passages of the source.
Tests used:
human M2 receptor [1] = biological target: T1, human M2 receptor (Homo sapiens, UniProt P08172); settings: for EC50: acetylcholine at EC20, allosteric potency, in some cases mean values from two or more determinations; for Emax: read-out: Efficiency
T1 sequence (P08172 1-466): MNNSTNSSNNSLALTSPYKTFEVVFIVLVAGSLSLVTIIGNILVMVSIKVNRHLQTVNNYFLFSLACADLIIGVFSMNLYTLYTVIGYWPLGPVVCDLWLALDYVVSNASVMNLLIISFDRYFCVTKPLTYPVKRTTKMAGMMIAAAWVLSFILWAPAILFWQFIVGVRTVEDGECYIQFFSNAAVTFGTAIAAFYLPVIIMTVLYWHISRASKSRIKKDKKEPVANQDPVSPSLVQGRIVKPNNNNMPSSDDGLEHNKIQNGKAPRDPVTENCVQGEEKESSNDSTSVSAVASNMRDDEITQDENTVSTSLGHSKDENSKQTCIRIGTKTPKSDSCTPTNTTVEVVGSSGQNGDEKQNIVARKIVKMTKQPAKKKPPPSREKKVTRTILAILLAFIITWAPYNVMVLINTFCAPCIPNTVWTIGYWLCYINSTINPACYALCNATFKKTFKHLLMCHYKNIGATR

human M2 receptor [2] = biological target: T1, human M2 receptor; format: cell-based; settings: shift in the acetylcholine dose-response curve (Allosteric EC50 shift, GraphPad PRISM); α >1 = positive cooperativity
[3] = Receptor activity EC50, M2-GIRK1/4 activation test

Compound | EC50 (human M2 receptor [1]; [3]) [nM] | Cooperativity (alpha factor) (human M2 receptor [2]) | Emax (human M2 receptor [1]) [%] | EC50 (human M2 receptor [1]; read-out: Receptor activity EC50, M2-GIRK1/4 activation test) [nM]
O=C(NC(c1ccccc1Cl)C(F)(F)F)c1cn(-c2ccc(F)cc2F)c2nc(N3CC[C@H](F)C3)ccc2c1=O (stereo partly drawn) [Example 217, N-[1-(2-Chlorophenyl)-2,2,2-trifluoroethyl]-1-(2,4-difluorophenyl)-7-[(3S)-3-fluoropyrrolidin-1-yl]-4-oxo-1,4-dihydro-1,8-naphthyridine-3-carboxamide] | 36 | 18 | – | –
CCC(COC(F)(F)F)NC(=O)c1cn(-c2ccc(F)cc2F)c2nc(N3C[C@@H](O)CC3=O)ccc2c1=O (stereo partly drawn) [Example 234, 1-(2,4-Difluorophenyl)-7-[(4S)-4-hydroxy-2-oxopyrrolidin-1-yl]-4-oxo-N-[1-(trifluoromethoxy)butan-2-yl]-1,4-dihydro-1,8-naphthyridine-3-carboxamide] | 75 | 28 | – | –
CC[C@@H](NC(=O)c1cn(-c2ccccc2F)c2nc(N3C[C@@H](O)CC3=O)ccc2c1=O)C(F)(F)F [Example 239, 1-(2-Fluorophenyl)-7-[(4S)-4-hydroxy-2-oxopyrrolidin-1-yl]-4-oxo-N-[(2R)-1,1,1-trifluorobutan-2-yl]-1,4-dihydro-1,8-naphthyridine-3-carboxamide] | 112 | 30 | 99.3 | –
CC[C@H](NC(=O)c1cn(-c2ccc(F)cc2F)c2nc(N3C[C@@H](C(=O)OC)OC3=O)ccc2c1=O)C(F)(F)F [Example 258, Methyl (5S)-3-[8-(2,4-difluorophenyl)-5-oxo-6-{[(2S)-1,1,1-trifluorobutan-2-yl]carbamoyl}-5,8-dihydro-1,8-naphthyridin-2-yl]-2-oxo-1,3-oxazolidine-5-carboxylate] | 147 | 30 | – | –
CC[C@H](NC(=O)c1cn(-c2ccc(F)cc2F)c2nc(N3C[C@H](C(=O)OC)OC3=O)ccc2c1=O)C(F)(F)F [Example 259, Methyl (5R)-3-[8-(2,4-difluorophenyl)-5-oxo-6-{[(2S)-1,1,1-trifluorobutan-2-yl]carbamoyl}-5,8-dihydro-1,8-naphthyridin-2-yl]-2-oxo-1,3-oxazolidine-5-carboxylate] | 560 | 14 | – | –
CC[C@@H](NC(=O)c1cn(-c2ccc(F)cc2F)c2nc(N3CC(O)C3)ccc2c1=O)C(F)(F)F [Example 261, 1-(2,4-Difluorophenyl)-7-(3-hydroxyazetidin-1-yl)-4-oxo-N-[(2R)-1,1,1-trifluorobutan-2-yl]-1,4-dihydro-1,8-naphthyridine-3-carboxamide] | 75 | 13 | – | –
CC[C@@H](NC(=O)c1cn(-c2ccc(F)cc2F)c2nc(N3CC(O)(C(F)(F)F)C3)ccc2c1=O)C(F)(F)F [Example 262, 1-(2,4-Difluorophenyl)-7-[3-hydroxy-3-(trifluoromethyl)azetidin-1-yl]-4-oxo-N-[(2R)-1,1,1-trifluorobutan-2-yl]-1,4-dihydro-1,8-naphthyridine-3-carboxamide] | 72 | 27 | – | –
CC[C@@H](NC(=O)c1cn(-c2c(F)cc(F)cc2F)c2nc(N3CCC(O)C3=O)ccc2c1=O)C(F)(F)F (stereo partly drawn) [Example 282, 7-[3-Hydroxy-2-oxopyrrolidin-1-yl-4-oxo-N-[(2R)-1,1,1-trifluorobutan-2-yl]-4-oxo-N-trifluorobutan-2-yl]-1-(2,4,6-trifluorophenyl)-1,4-dihydro-1,8-naphthyridine-3-carboxamide] | – | 32 | – | 21
CC[C@H](NC(=O)c1cn(-c2ccc(F)cc2F)c2nc(N3C[C@H](O)CC3=O)ccc2c1=O)C(F)(F)F [Example 285, 1-(2,4-Difluorophenyl)-7-[(4R)-4-hydroxy-2-oxopyrrolidin-1-yl]-4-oxo-N-[(2S)-1,1,1-trifluorobutan-2-yl]-1,4-dihydro-1,8-naphthyridine-3-carboxamide] | 598 | 23 | 79.9 | –
CC[C@H](NC(=O)c1cn(-c2ccc(F)cc2F)c2nc(N3CC=CC3=O)ccc2c1=O)C(F)(F)F [Example 286, 1-(2,4-Difluorophenyl)-4-oxo-7-(2-oxo-2,5-dihydro-1H-pyrrol-1-yl)-N-[(2S)-1,1,1-trifluorobutan-2-yl]-1,4-dihydro-1,8-naphthyridine-3-carboxamide] | 94 | 3 | – | –
CC[C@@H](NC(=O)c1cn(-c2c(F)cccc2Cl)c2nc(N3C[C@@H](O)CC3=O)ccc2c1=O)C(F)(F)F [Example 307, 1-(2-Chloro-6-fluorophenyl)-7-[(4S)-4-hydroxy-2-oxopyrrolidin-1-yl]-4-oxo-N-[(2R)-1,1,1-trifluorobutan-2-yl]-1,4-dihydro-1,8-naphthyridine-3-carboxamide] | 14 | 36 | – | –
CC[C@@H](NC(=O)c1cn(-c2ccc(F)cc2F)c2nc(N3CCNC3=O)ccc2c1=O)C(F)(F)F [Example 320, 1-(2,4-Difluorophenyl)-4-oxo-7-(2-oxoimidazolidin-1-yl)-N-[(2R)-1,1,1-trifluorobutan-2-yl]-1,4-dihydro-1,8-naphthyridine-3-carboxamide] | 130 | 6 | – | –
C[C@H](NC(=O)c1cn(-c2c(F)cccc2F)c2nc(N3C[C@@H](O)CC3=O)ccc2c1=O)C(F)(F)F [Example 329, 1-(2,6-Difluorophenyl)-7-[(4S)-4-hydroxy-2-oxopyrrolidin-1-yl]-4-oxo-N-[(2S)-1,1,1-trifluoropropan-2-yl]-1,4-dihydro-1,8-naphthyridine-3-carboxamide] | 76 | 16 | – | –
CC[C@H](NC(=O)c1cn(-c2c(F)cc(F)cc2F)c2nc(N3C[C@@](C)(O)C[C@H]3C)ccc2c1=O)C(F)(F)F [Example 331, 7-[(2R,4S)-4-Hydroxy-2,4-dimethylpyrrolidin-1-yl]-4-oxo-N-[(2S)-1,1,1-trifluorobutan-2-yl]-1-(2,4,6-trifluorophenyl)-1,4-dihydro-1,8-naphthyridine-3-carboxamide] | 33 | 7 | – | –
CC[C@H](NC(=O)c1cn(-c2c(F)cccc2F)c2nc(N3C[C@@H](O)CC3=O)ccc2c1=O)C(F)(F)F [Example 333, 1-(2,6-Difluorophenyl)-7-[(4S)-4-hydroxy-2-oxopyrrolidin-1-yl]-4-oxo-N-[(2S)-1,1,1-trifluorobutan-2-yl]-1,4-dihydro-1,8-naphthyridine-3-carboxamide] | 31 | 28 | 94.5 | –
C[C@H](NC(=O)c1cn(-c2c(F)cc(F)cc2Cl)c2nc(N3CCC(C)(C)C3=O)ccc2c1=O)C(F)(F)F [Example 335, 1-(2-Chloro-4,6-difluorophenyl)-7-(3,3-dimethyl-2-oxopyrrolidin-1-yl)-4-oxo-N-[(2S)-1,1,1-trifluoropropan-2-yl]-1,4-dihydro-1,8-naphthyridine-3-carboxamide] | 23 | 7 | – | –
CC[C@H](NC(=O)c1cn(-c2c(F)cc(F)cc2Cl)c2nc(N3CCC(C)(C)C3=O)ccc2c1=O)C(F)(F)F [Example 336, 1-(2-Chloro-4,6-difluorophenyl)-7-(3,3-dimethyl-2-oxopyrrolidin-1-yl)-4-oxo-N-[(2S)-1,1,1-trifluorobutan-2-yl]-1,4-dihydro-1,8-naphthyridine-3-carboxamide] | 12 | 13 | – | –
O=C(N[C@@H](C1CC1)C(F)(F)F)c1cn(-c2c(F)cc(F)cc2Cl)c2nc(N3C[C@@H](O)CC3=O)ccc2c1=O [Example 338, 1-(2-Chloro-4,6-difluorophenyl)-N-[(1 S)-1-cyclopropyl-2,2,2-trifluoroethyl]-7-[(4S)-4-hydroxy-2-oxopyrrolidin-1-yl]-4-oxo-1,4-dihydro-1,8-naphthyridine-3-carboxamide] | 7 | 24 | – | –
C[C@@H](COC(F)(F)F)NC(=O)c1cn(-c2c(F)cc(F)cc2F)c2nc(N3C[C@@H](O)CC3=O)ccc2c1=O [Example 339, 7-[(4S)-4-Hydroxy-2-oxopyrrolidin-1-yl]-4-oxo-N-[(2S)-1-(trifluoromethoxy)propan-2-yl]-1-(2,4,6-trifluorophenyl)-1,4-dihydro-1,8-naphthyridine-3-carboxamide] | 44 | 26 | – | –
CC[C@H](NC(=O)c1cn(-c2c(F)cc(F)cc2Cl)c2nc(N3CCNC3=O)ccc2c1=O)C(F)(F)F [Example 340, 1-(2-Chloro-4,6-difluorophenyl)-4-oxo-7-(2-oxoimidazolidin-1-yl)-N-[(2S)-1,1,1-trifluorobutan-2-yl]-1,4-dihydro-1,8-naphthyridine-3-carboxamide] | 10 | 22 | – | –
O=C(NC1(C(F)(F)F)CCCC1)c1cn(-c2c(F)cc(F)cc2F)c2nc(N3C[C@@H](O)[C@H](O)C3)ccc2c1=O [Example 350, 7-[(3R,4R)-3,4-Dihydroxypyrrolidin-1-yl]-4-oxo-N-[1-(trifluoromethyl)cyclopentyl]-1-(2,4,6-trifluorophenyl)-1,4-dihydro-1,8-naphthyridine-3-carboxamide] | 6 | 42 | – | –

Reference: US20190367516A1 (Bayer Pharma Aktiengesellschaft, priority 2015, published 2019)
